Results taken from patent US11420962B2, “Indene derivatives useful in treating pain and inflammation” (TARO PHARMACEUTICALS INC., priority 2018, dated 2022).

test system: Rat DRG; assay: Rat dorsal root ganglion excitability response (EFS, Ca2+ transients); type: cell-based; settings: Rat DRG excitability; read-out: Average response by the standard compound
Description: Dorsal root ganglions (DRGs) were dissected from adult rats. The tissue was processed, and cells were seeded into call culture plates (48 center wells of one quadrant in 384-well plates) and cultured for 2 days prior to Electrical field stimulation (EFS). To visualize the neuronal excitability response, intracellular Ca^+2 transients were monitored using the Ca^+2 indicator, Ca5. Ca5 was added to the cultures 1 h prior to EFS. Representative test compounds of the invention (i.e., test compounds) and reference compound, tetracaine, were added in concentration-response format encompassing six concentrations, performed in duplicate. The highest concentration tested was typically 30 μM with 1 in 3 dilutions generating the subsequent concentrations.
Effects on DRG excitability by the test compounds and standard were evaluated using four EFS protocols as disclosed in Table 2.
Experimental results were performed using two separate sets of plates using separate test compound and standard dilutions, to provide n=2. In the first set of experiments, compounds were added 24 h prior to EFS to increase the possibility to also detect more long-term compound effects. In the second set of experiments the compounds were added directly prior to EFS. Excitability response to EFS was analyzed as the average fluorescence ratio (peak/baseline) change per well. All plates were evaluated using high content imaging equipment post-EFS, imaging the Ca5 background staining to detect any possible compound-related toxic effects.
Average response by the standard compound, tetracaine, was 4.05 μM.

SMILES | EC50
CCCCNc1ccc(C(=O)OCCN(C)C)cc1 [tetracaine, reference compound] | 4050 nM

same assay, conditions: Rattus norvegicus; Table 3; electrical field stimulation, Ca5 indicator; read-out: Scoring (EC50, Rat DRG excitability)

SMILES | EC50
C=C1CC[C@H]2[C@H](CN)[C@@H]([C@@]3(C)Cc4cn(CC(C)(C)C)nc4C[C@@H]3CO)CC[C@]12C [Ia-23, ((5R,6S)-5-((3aS,4R,5S,7aS)-4-(aminomethyl)-7a-methyl-1-methyleneoctahydro-1H-inden-5-yl)-5-methyl-2-neopentyl-4,5,6,7-tetrahydro-2H-indazol-6-yl)methanol] | 2000 to 6000 nM
C[C@H]1CC[C@H]2[C@H](CN)[C@@H]([C@@]3(C)Cc4cnn(-c5ccccc5)c4C[C@@H]3CO)CC[C@]12C [Ia-35, ((5R,6S)-5-((1S,3aS,4S,5S,7aR)-4-(aminomethyl)-1,7a-dimethyloctahydro-1H-inden-5-yl)-5-methyl-1-phenyl-4,5,6,7-tetrahydro-1H-indazol-6-yl)methanol] | < 2000 nM
C[C@H]1CC[C@H]2[C@H](CN)[C@@H]([C@@]3(C)Cc4cnn(C5CCCCC5)c4C[C@@H]3CO)CC[C@]12C [Ia-37, ((5R,6S)-5-((1S,3aS,4S,5S,7aR)-4-(aminomethyl)-1,7a-dimethyloctahydro-1H-inden-5-yl)-1-cyclohexyl-5-methyl-4,5,6,7-tetrahydro-1H-indazol-6-yl)methanol] | < 2000 nM
C[C@H]1CC[C@H]2[C@H](CN)[C@@H]([C@@]3(C)Cc4cnn(CC(C)(C)C)c4C[C@@H]3CO)CC[C@]12C [Ia-38, ((5R,6S)-5-((1S,3aS,4S,5S,7aR)-4-(aminomethyl)-1,7a-dimethyloctahydro-1H-inden-5-yl)-5-methyl-1-neopentyl-4,5,6,7-tetrahydro-1H-indazol-6-yl)methanol] | < 2000 nM
C[C@H]1CC[C@H]2[C@H](CN)[C@@H]([C@@]3(C)Cc4cnn(C(C)(C)C)c4C[C@@H]3CO)CC[C@]12C [Ia-40, ((5R,6S)-5-((1S,3aS,4S,5S,7aR)-4-(aminomethyl)-1,7a-dimethyloctahydro-1H-inden-5-yl)-1-(tert-butyl)-5-methyl-4,5,6,7-tetrahydro-1H-indazol-6-yl)methanol] | 2000 to 6000 nM
C[C@H]1CC[C@H]2[C@H](CN)[C@@H]([C@@]3(C)Cc4cnn(-c5ccccn5)c4C[C@@H]3CO)CC[C@]12C [Ia-42, ((5R,6S)-5-((1S,3aS,4S,5S,7aR)-4-(aminomethyl)-1,7a-dimethyloctahydro-1H-inden-5-yl)-5-methyl-1-(pyridin-2-yl)-4,5,6,7-tetrahydro-1H-indazol-6-yl)methanol] | < 2000 nM
C[C@H]1CC[C@H]2[C@H](CN)[C@@H]([C@@]3(C)Cc4cn(-c5ccccn5)nc4C[C@@H]3CO)CC[C@]12C [Ia-43, ((5R,6S)-5-((1S,3aS,4S,5S,7aR)-4-(aminomethyl)-1,7a-dimethyloctahydro-1H-inden-5-yl)-5-methyl-2-(pyridin-2-yl)-4,5,6,7-tetrahydro-2H-indazol-6-yl)methanol] | < 2000 nM
